The source of these data is US20170049688A1, “Herbal Combinations For Treating Psoriasis” (Sirbal Ltd., priority 2015, published 2017).

Where two headings read alike, the source gives them in different places.

Data set [1] has as its system hemolytic plaque forming cells in the spleens of mice. The following applies: cited from earlier work.
For data set [2] the following is noted: cited from earlier work.
The conditions of data set [3]: cited from earlier work. The source holds these as a separate data set.
For data set [4] the following is noted: cited from earlier work. The source holds these as a separate data set.
The subject of another data set is HT29 colon cancer cells. Nature of the data set: Viability of HT29 tumor cells (PI staining). Type of data set: cell-based. The following applies: 24-hour exposure. As for the experimental part: (§1) In another example, the effect of CXCR4 antagonists on the survival of NB4, HL60, Jurkat leukemic cells and HT29 colon cancer and prostate tumor cells was examined.
(§2) Following the incubation, the cells were stained with propidium iodide (PI) (Sigma, St. Louis, Mo.) and percent of viable PI-negative cells in culture was determined by FACScalibur analysis (Becton Dickinson Immunocytometry Systems), using CellQuest software.
as §2

The next data set has as its system thymidylate synthase. The following applies: colon cancer cells; cited from earlier work.
In a further data set the test system is thymidine kinase. The note with it: colon cancer cells; cited from earlier work.
In data set [5] the test system is NB4, HL60, Jurkat leukemic cells. The data set is described as follows: Viability of leukemic cells (PI staining, FACS). Type of data set: cell-based, human. The note with it: 24 hours. As for the experimental part: as §1, §2, §2
A further data set relates to murine melanoma. The following applies: 5 mg/kg; cited from earlier work.
Data set [6] concerns mammary carcinoma of mice. The note with it: intraperitoneal, 75 mg/kg; cited from earlier work.
The subject of a further data set is mice. The following applies: cited from earlier work.
The test system of data set [7] is central stimulation in mice and rats. The note with it: oral administration; cited from earlier work.

For the compound `C[C@@H]1O[C@@H](O[C@@H]2[C@@H](O)[C@H](OCCc3ccc(O)c(O)c3)O[C@H](CO)[C@H]2OC(=O)/C=C/c2ccc(O)c(O)c2)[C@H](O)[C@H](O)[C@H]1O` [acetoside], in [1] (oral dose of 100 mg/kg), the “suppression of hemolytic plaque forming cells” value (“suppression” below) is listed as 18%.

`CCC(=O)O[C@]1(C(=O)CCl)[C@@H](C)C[C@H]2[C@@H]3CCC4=CC(=O)C=C[C@]4(C)[C@@]3(F)[C@@H](O)C[C@@]21C` [Clobetasol propionate]: the solubility in water entry in data set [2] is recorded as “insoluble in water”.

`O=C(O)c1cc(O)c2c(c1)C(=O)c1cccc(O[C@@H]3O[C@H](CO)[C@@H](O)[C@H](O)[C@H]3O)c1C2=O` [Rhein-8-glucoside]: the “ED50 (oral purgative)” value in [3] was 20.0 mg/kg.

On to `O=C(O)c1cc(O)c2c(c1)C(=O)c1cccc(O)c1C2=O` [Rhein], for which, in [4], the half-life result is listed as “about 205 min”.

On to `Cc1ccc(C(C)C)cc1O` [Carvacrol], for which the half life entry in [4] was “about 1.29 hours”.

With `C[C@H]1O[C@@H](O[C@H]2[C@@H](O)C[C@H](O[C@H]3[C@@H](O)C[C@H](O[C@H]4CC[C@@]5(C)[C@H](CC[C@@H]6[C@@H]5C[C@@H](O)[C@]5(C)[C@@H](C7=CC(=O)OC7)CC[C@]65O)C4)O[C@@H]3C)O[C@@H]2C)C[C@H](O)[C@@H]1O` [Digoxin, reference compound], the “effect on HT29 tumor cells” value in the data set with HT29 colon cancer cells is listed as “partial however significant effect”. Moreover, the half life result in data set [4] was “around 36 hours”.

As to jionoside B, the “suppression” value in data set [1] (oral dose of 100 mg/kg) is on record as 36%.

Take Emodin monoglucoside: in data set [3], the “ED50 (oral purgative)” value is given as 103.6 mg/kg.

On to `CC1=CCC(C(C)(C)O)CC1` (stereo not drawn) [Alpha-terpineol], for which the half life entry in [4] was “about 1.245 hours”.

`O=C(O)c1cc(O)c2c(c1)[C@@H]([C@H]1c3cc(C(=O)O)cc(O)c3C(=O)c3c(O[C@@H]4O[C@H](CO)[C@@H](O)[C@H](O)[C@H]4O)cccc31)c1cccc(O[C@@H]3O[C@H](CO)[C@@H](O)[C@H](O)[C@H]3O)c1C2=O` [Sennoside B]: in data set [3], the “ED50 (oral purgative)” value was 13.9 mg/kg.

Take `COc1ccc(/C=C/c2cc(O)cc(O[C@@H]3O[C@H](CO)[C@@H](O)[C@H](O)[C@H]3O)c2)cc1O` [Rhapontin]: in data set [4], the half life entry is recorded as “about 23.5 minutes”.

Regarding `CC(C)=CCC/C(C)=C/CO` [Geraniol], the “reduction of thymidylate synthase expression” value in the data set with thymidylate synthase is on record as 2 fold. In addition, in the data set on thymidine kinase, the “reduction of thymidine kinase expression” value is reported as 2 fold.

Take `O=C(O)c1cc(O)c2c(c1)[C@H]([C@H]1c3cc(C(=O)O)cc(O)c3C(=O)c3c(O[C@@H]4O[C@H](CO)[C@@H](O)[C@H](O)[C@H]4O)cccc31)c1cccc(O[C@@H]3O[C@H](CO)[C@@H](O)[C@H](O)[C@H]3O)c1C2=O` [Sennoside A]: the “ED50 (oral purgative)” value in data set [3] was 13.5 mg/kg.

For `COc1cc(C(=O)O)ccc1O` [Vanillic acid], the half life result in [4] is “about 10.552 hours”.

In the case of `O=C(O)c1cc(O)c2c(c1)[C@H]([C@H]1c3cc(CO)cc(O)c3C(=O)c3c(O[C@@H]4O[C@H](CO)[C@@H](O)[C@H](O)[C@H]4O)cccc31)c1cccc(O[C@@H]3O[C@H](CO)[C@@H](O)[C@H](O)[C@H]3O)c1C2=O` [Sennoside C], the “ED50 (oral purgative)” value in data set [3] is on record as 13.3 mg/kg.

Take `O=P1(N(CCCl)CCCl)NCCCO1` (centres unmarked) [cyclophosphamide, reference compound]: in data set [1] (intraperitoneal dose of 30 mg/kg), the “suppression” value is 52.5%.

In the case of `O=C(O)C(=O)OC[C@H]1O[C@@H](Oc2cccc3c2C(=O)c2c(O)cc(C(=O)O)cc2[C@@H]3[C@H]2c3cc(C(=O)O)cc(O)c3C(=O)c3c(O[C@@H]4O[C@H](CO)[C@@H](O)[C@H](O)[C@H]4O)cccc32)[C@H](O)[C@@H](O)[C@@H]1O` [Sennoside E], in data set [3], the “ED50 (oral purgative)” value is reported as 13.5 mg/kg.

As for `Cc1cc(O)c2c(c1)C(=O)c1cc(O)cc(O)c1C2=O` [Emodin], in data set [3], the “ED50 (oral purgative)” value is on record as above 500 mg/kg. For the same compound, the “effect on HT29 tumor cells” value in the data set on HT29 colon cancer cells is reported as “partial however significant effect”. Moreover, in data set [4], the half-life result was “approximately 227 min”. The “concentrations inhibiting the growth of leukemic cells” value in data set [5] is “more than 5 microgram/ml”. Moreover, in the data set on murine melanoma, the “inhibition rate against murine melanoma” value is reported as 73%. Further, in data set [6], the “inhibition against mammary carcinoma” value is 45%. Moreover, the LD50 with mice was 0.56 g/k″g.

With `O=C(O)C(=O)OC[C@H]1O[C@@H](Oc2cccc3c2C(=O)c2c(O)cc(C(=O)O)cc2[C@@H]3[C@@H]2c3cc(C(=O)O)cc(O)c3C(=O)c3c(O[C@@H]4O[C@H](CO)[C@@H](O)[C@H](O)[C@H]4O)cccc32)[C@H](O)[C@@H](O)[C@@H]1O` [Sennoside F], the “ED50 (oral purgative)” value in data set [3] was 16.1 mg/kg.

Turning to `COc1cc(O)c2c(c1)C(=O)c1cc(C)cc(O)c1C2=O` [Physcion], the “ED50 (oral purgative)” value in data set [3] is above 500 mg/kg.

With `O=C1c2cc(CO)cc(O)c2C(=O)c2c(OC3OC(CO)C(O)C(O)C3O)cccc21` (centres unmarked) [Aloe-emodin-8-glycoside], the “ED50 (oral purgative)” value in data set [3] is 71.6 mg/kg.

Turning to `O=C(/C=C/c1ccc(O)c(O)c1)O[C@@H]1C[C@](O)(C(=O)O)C[C@@H](O)[C@H]1O` [chlorogenic acid], in [7], the “potency of central stimulation relative to caffeine” value is on record as 1/6.

On to `O=c1cc(-c2ccc(O)c(O)c2)oc2cc(O)cc(O)c12` [Luteolin], for which the half life result in data set [4] was “about 1.2 hours”.

As for `CC[C@H](CC[C@@H](C)[C@H]1CC[C@H]2[C@@H]3CC=C4C[C@@H](O)CC[C@]4(C)[C@H]3CC[C@]12C)C(C)C` [β-sitosterol], the half life entry in [4] was “about 0.966 hours”.

As for `O=C1c2cccc(O)c2C(=O)c2c(O)cc(CO)cc21` [Aloe-emodin], the half-life entry in [4] is recorded as “about 78 min”.

Take `O=C(O)c1cc(O)c2c(c1)[C@H]([C@@H]1c3cc(CO)cc(O)c3C(=O)c3c(O[C@@H]4O[C@H](CO)[C@@H](O)[C@H](O)[C@H]4O)cccc31)c1cccc(O[C@@H]3O[C@H](CO)[C@@H](O)[C@H](O)[C@H]3O)c1C2=O` [Sennoside D]: the “ED50 (oral purgative)” value in data set [3] was 13.8 mg/kg.

As to `OCC1=C[C@@H](O)[C@@H]2C=CO[C@@H](O[C@@H]3O[C@H](CO)[C@@H](O)[C@H](O)[C@H]3O)[C@H]12` [Aucubin], the half life result in data set [4] is listed as “about 42.5 minutes”.
